This passage reports IC50 results from patent publication US9085555B2, “Complement pathway modulators and uses thereof” (priority 2011, dated 2015).

This experiment has as its target Factor D (Homo sapiens (Human), UniProt P00746). Briefly: biochemical. Format: biochemical.

Structures are written as SMILES. Structures can show the parent of a compound that is named as a salt. Where two headings read alike, the source gives them in different places.

Chain of Factor D (P00746 26-253): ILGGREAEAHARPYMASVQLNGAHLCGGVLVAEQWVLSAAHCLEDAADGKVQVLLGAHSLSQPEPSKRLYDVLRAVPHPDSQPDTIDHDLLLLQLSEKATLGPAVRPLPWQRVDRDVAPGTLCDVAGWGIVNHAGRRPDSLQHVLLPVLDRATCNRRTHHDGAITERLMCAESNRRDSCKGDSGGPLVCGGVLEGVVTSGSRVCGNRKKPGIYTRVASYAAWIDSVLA

In general, IC50 refers to the concentration that inhibits the measured activity by half. On to `CC(=O)c1cn(CC(=O)N2[C@@H]3C[C@@H]3C[C@H]2C(=O)NCc2cccc(Cl)c2F)c2ccc(C(=O)O)cc12` [Example 603, 3-Acetyl-1-{2-[(1R,3S,5R)-3-(3-chloro-2-fluoro-benzylcarbamoyl)-2-aza-bicyclo[3.1.0]hex-2-yl]-2-oxo-ethyl}-1H-indole-5-carboxylic acid], for which, under “read-out: IC50”, the IC50 stood at 1610 nM.

In the case of `CC(=O)c1cn(CC(=O)N2C[C@H](F)C[C@H]2C(=O)NCc2cccc(Cl)c2F)c2cc(CO)ccc12` [Example 604, (2S,4R)-1-[2-(3-Acetyl-6-hydroxymethyl-indol-1-yl)-acetyl]-4-fluoro-pyrrolidine-2-carboxylic acid 3-chloro-2-fluoro-benzylamide], under “read-out: IC50”, the IC50 came out at 37 nM. Still for that read-out and setting: as for `CC(=O)c1cn(CC(=O)N2C[C@H](F)C[C@H]2C(=O)NCc2cc(C(=O)O)cc(Cl)c2F)c2ccccc12` [Example 605, 3-[({(2S,4R)-1-[2-(3-Acetyl-indol-1-yl)-acetyl]-4-fluoro-pyrrolidine-2-carbonyl}-amino)-methyl]-5-chloro-4-fluoro-benzoic acid], the figure is 54 nM; as for `CC(=O)c1cn(CC(=O)N2[C@@H]3C[C@@H]3C[C@H]2C(=O)NCc2cc(C(=O)O)cc(Cl)c2F)c2ccccc12` [Example 606, 3-[({(1R,3S,5R)-2-[2-(3-Acetyl-indol-1-yl)-acetyl]-2-aza-bicyclo[3.1.0]hexane-3-carbonyl}-amino)-methyl]-5-chloro-4-fluoro-benzoic acid], 14 nM. As for `CC(=O)c1cn(CC(=O)N2C[C@@](F)(CN)C[C@H]2C(=O)NCc2cccc(Cl)c2F)c2ccccc12` [Example 607, (2S,4S)-1-[2-(3-Acetyl-indol-1-yl)-acetyl]-4-aminomethyl-4-fluoro-pyrrolidine-2-carboxylic acid 3-chloro-2-fluoro-benzylamide], the IC50 (read-out: IC50) was 28 nM. Consider `CN[C@H]1C[C@@H](C(=O)NCc2cccc(Cl)c2F)N(C(=O)Cn2cc(C(C)=O)c3ccccc32)C1` [Example 608, (2S,4S)-1-[2-(3-Acetyl-indol-1-yl)-acetyl]-4-methylamino-pyrrolidine-2-carboxylic acid 3-chloro-2-fluoro-benzylamide], for which the IC50 (read-out: IC50) amounted to 1840 nM. As for `COCCN[C@H]1C[C@@H](C(=O)NCc2cccc(Cl)c2F)N(C(=O)Cn2cc(C(C)=O)c3ccccc32)C1` [Example 609, (2S,4S)-1-[2-(3-Acetyl-indol-1-yl)-acetyl]-4-(2-methoxy-ethylamino)-pyrrolidine-2-carboxylic acid 3-chloro-2-fluoro-benzylamide], the IC50 (read-out: IC50) amounted to 1560 nM.

On to `CC(=O)c1cn(CC(=O)N2[C@H](C(=O)NCc3cccc(Cl)c3F)C[C@@]3(CO)C[C@@H]23)c2ccccc12` [Example 611, (1R,3S,5S)-2-[2-(3-Acetyl-indol-1-yl)-acetyl]-5-hydroxymethyl-2-aza-bicyclo[3.1.0]hexane-3-carboxylic acid 3-chloro-2-fluoro-benzylamide], for which the IC50 (read-out: IC50) stood at 141 nM.

As for `CC(=O)c1cn(CC(=O)N2C[C@@H]3C[C@@H]3[C@H]2C(=O)N[C@H](CO)c2cccc(Cl)c2F)c2ccccc12` [Example 612, (1S,2S,5R)-3-[2-(3-Acetyl-indol-1-yl)-acetyl]-3-aza-bicyclo[3.1.0]hexane-2-carboxylic acid [(S)-1-(3-chloro-2-fluoro-phenyl)-2hydroxy-ethyl]-amide], for the setting “read-out: IC50”, the IC50 worked out at 3430 nM. Turning to `CC(=O)c1cn(CC(=O)N2[C@@H]3C[C@@H]3C[C@H]2C(=O)N[C@H](CO)c2cccc(Cl)c2F)c2ncccc12` [Example 613, (1R,3S,5R)-2-[2-(3-Acetyl-pyrrolo[2,3-b]pyridin-1-yl)-acetyl]-2-aza-bicyclo[3.1.0]hexane-3-carboxylic acid [(S)-1-(3-chloro-2-fluoro-phenyl)-2-hydroxy-ethyl]-amide], under “read-out: IC50”, the IC50 came out at 215 nM.

In the case of `CC(=O)c1cn(CC(=O)N2C[C@](C)(F)C[C@H]2C(=O)N[C@H](CO)c2cccc(Cl)c2F)c2ncccc12` [Example 614, (2S,4R)-1-[2-(3-Acetyl-pyrrolo[2,3-b]pyridin-1-yl)-acetyl]-4-fluoro-4-methyl-pyrrolidine-2-carboxylic acid [(S)-1-(3-chloro-2-fluoro-phenyl)-2-hydroxy-ethyl]-amide], the IC50 (read-out: IC50) stood at 245 nM. For `CC(=O)c1cn(CC(=O)N2[C@@H]3C[C@@H]3C[C@H]2C(=O)NCc2cccc(Cl)c2F)c2ccc(C(=N)N(C)C)cc12` [Example 615, (1R,3S,5R)-2-{2-[3-Acetyl-5-(N,N-dimethyl-carbamimidoyl)-indol-1-yl]-acetyl}-2-aza-bicyclo[3.1.0]hexane-3-carboxylic acid 3-chloro-2-fluoro-benzylamide], the IC50 (read-out: IC50) amounted to 42 nM. On to `CC(=O)c1cn(CC(=O)N2[C@@H]3C[C@@H]3C[C@H]2C(=O)NCc2cccc(Cl)c2F)c2cc(C(=N)N(C)C)ccc12` [Example 616, (1R,3S,5R)-2-{2-[3-Acetyl-6-(N,N-dimethyl-carbamimidoyl)-indol-1-yl]-acetyl}-2-aza-bicyclo[3.1.0]hexane-3-carboxylic acid 3-chloro-2-fluoro-benzylamide], for which, where the note is “read-out: IC50”, the IC50 came to 123 nM. For the molecule `CC(=O)c1cn(CC(=O)N2C[C@H](F)C[C@H]2C(=O)NCc2cccc(Cl)c2F)c2cc(-c3nnn[nH]3)ccc12` [Example 617, (2S,4R)-1-{2-[3-Acetyl-6-(1H-tetrazol-5-yl)-indol-1-yl]-acetyl}-4-fluoro-pyrrolidine-2-carboxylic acid 3-chloro-2-fluoro-benzylamide], the IC50 (read-out: IC50) amounted to 28 nM. On the same count and under the same terms, the figure for `CC(=O)c1cn(CC(=O)N2[C@@H]3C[C@@H]3C[C@H]2C(=O)NCc2cccc(Cl)c2F)c2cc(-c3nnn[nH]3)ccc12` [Example 618, (1R,3S,5R)-2-{2-[3-Acetyl-6-(1H-tetrazol-5-yl)-indol-1-yl]-acetyl}-2-aza-bicyclo[3.1.0]hexane-3-carboxylic acid 3-chloro-2-fluoro-benzylamide] is 39 nM.

Turning to `[2H]C([2H])([2H])C(=O)c1cn(CC(=O)N2C[C@H](F)[C@@H](OC)[C@H]2C(=O)NCc2cccc(Cl)c2F)c2ccccc12` [Example 619, (2S,3S,4S)-1-[2-(3-Acetyl-d3-indol-1-yl)-acetyl]-4-fluoro-3-methoxy-pyrrolidine-2-carboxylic acid 3-chloro-2-fluoro-benzylamide], the IC50 was 14 nM. The same measure, in the same setting: the figure for `[2H]C([2H])([2H])O[C@H]1[C@@H](C(=O)NCc2cccc(Cl)c2F)N(C(=O)Cn2cc(C(C)=O)c3ccccc32)C[C@@H]1F` [Example 620, (2S,3S,4S)-1-[2-(3-Acetyl-indol-1-yl)-acetyl]-4-fluoro-3-methoxy-d3-pyrrolidine-2-carboxylic acid 3-chloro-2-fluoro-benzylamide] is 17 nM. Turning to `CC(=O)c1nc(CC(=O)N2[C@@H]3C[C@@H]3C[C@H]2C(=O)NCc2cccc(Cl)c2F)n2ccccc12` [Example 621, (1R,3S,5R)-2-[2-(1-Acetyl-imidazo[1,5-a]pyridin-3-yl)-acetyl]-2-aza-bicyclo[3.1.0]hexane-3-carboxylic acid 3-chloro-2-fluoro-benzylamide], for the setting “read-out: IC50”, the 50% inhibitory concentration (IC50) came to 19 nM.

Take `CC(=O)c1cn(CC(=O)N2[C@H](CNC(=O)Oc3cccc(Cl)c3F)C[C@H]3C[C@H]32)c2ccccc12` [Example 622, {(1R,3S,5R)-2-[2-(3-Acetyl-indol-1-yl)-acetyl]-2-aza-bicyclo[3.1.0]hex-3-ylmethyl}-carbamic acid 3-chloro-2-fluoro-phenyl ester]: the IC50 (read-out: IC50) was 5600 nM. The same measure, in the same setting: as for `CC(=O)c1nn(CC(=O)N2C[C@H](F)C[C@H]2C(=O)NCc2cccc(Cl)c2F)c2cnccc12` [Example 623, (2S,4R)-1-[2-(3-Acetyl-pyrazolo[3,4-c]pyridin-1-yl)-acetyl]-4-fluoro-pyrrolidine-2-carboxylic acid 3-chloro-2-fluoro-benzylamide formate], the figure is 24 nM; as for `CO[C@H]1[C@@H](C(=O)N[C@H](C)c2cccc(Cl)c2F)N(C(=O)Cn2nc(C(C)=O)c3cccnc32)C[C@@H]1F` [Example 624, (2S,3S,4S)-1-[2-(3-Acetyl-pyrazolo[3,4-b]pyridin-1-yl)-acetyl]-4-fluoro-3-methoxy-pyrrolidine-2-carboxylic acid [(R)-1-(3-chloro-2-fluoro-phenyl)-ethyl]-amide], 26 nM. In the case of `CC(=O)c1nn(CC(=O)N2C[C@@H]3C[C@@H]3[C@H]2C(=O)NCc2cccc(Cl)c2F)c2cnc(C)cc12` [Example 625, (1S,2S,5R)-3-[2-(3-Acetyl-5-methyl-pyrazolo[3,4-c]pyridin-1-yl)-acetyl]-3-aza-bicyclo [3.1.0]hexane-2-carboxylic acid 3-chloro-2-fluoro-benzylamide], the IC50 (read-out: IC50) was determined as 19 nM.

For the molecule `CC(=O)c1nn(CC(=O)N2C[C@H](F)C[C@H]2C(=O)NCc2cccc(Cl)c2F)c2cnc(C)cc12` [Example 626, (2S,4R)-1-[2-(3-Acetyl-5-methyl-pyrazolo[3,4-c]pyridin-1-yl)-acetyl]-4-fluoro-pyrrolidine-2-carboxylic acid 3-chloro-2-fluoro-benzylamide], where the note is “read-out: IC50”, the IC50 amounted to 36 nM. The same measure, in the same setting: the figure for `CC(=O)c1nn(CC(=O)N2[C@@H]3C[C@@H]3C[C@H]2C(=O)NCc2cccc(Cl)c2F)c2cnccc12` [Example 627, (1R,3S,5R)-2-[2-(3-Acetyl-pyrazolo[3,4-c]pyridin-1-yl)-acetyl]-2-aza-bicyclo [3.1.0]hexane-3-carboxylic acid 3-chloro-2-fluoro-benzylamide] is 16 nM; for `CO[C@H]1[C@@H](C(=O)Nc2cccc(OC(F)(F)F)c2F)N(C(=O)Cn2nc(C(N)=O)c3ccccc32)C[C@@H]1F` [Example 628, 1-{2-[(2S,3S,4S)-4-Fluoro-2-(2-fluoro-3-trifluoromethoxy-phenylcarbamoyl)-3-methoxy-pyrrolidin-1-yl]-2-oxo-ethyl}-1H-indazole-3-carboxylic acid amide] it is 38 nM; for `CO[C@H]1[C@@H](C(=O)Nc2cccc(OC(F)(F)F)c2F)N(C(=O)Cn2nc(C(N)=O)c3ccncc32)C[C@@H]1F` [Example 629, 1-{2-[(2S,3S,4S)-4-Fluoro-2-(2-fluoro-3-trifluoromethoxy-phenylcarbamoyl)-3-methoxy-pyrrolidin-1-yl]-2-oxo-ethyl}-1H-pyrazolo[3,4-c]pyridine-3-carboxylic acid amide trifluoroacetate] it is 17 nM.
